Results: ChEMBL document CHEMBL1201862, “PubChem BioAssay data set” (2004)
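Five compound concentrations were applied to cells in 96-well plates for 48 hours; endpoints were derived by simple linear interpolation of the resulting dose-response curve. GI50 marks 50% less growth.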 The source made the active and inactive calls. Cut-off read from the data, not from the text of the source: active = GI50 up to about 1.1 µM and inactive = higher.

Columns and labels:
Experiment in all cases: inhibition of tumour cell growth, NCI panel, 48 h
A498 = tested on: A498
A549 = tested on: A549
HCC 2998 = tested on: HCC 2998
HCT-116 = tested on: HCT-116
HL-60 = tested on: HL-60
KM12 = tested on: KM12
LOX IMVI = tested on: LOX IMVI
Malme-3M = tested on: Malme-3M
NCI-H460 = tested on: NCI-H460
OVCAR-8 = tested on: OVCAR-8
RPMI-8226 = tested on: RPMI-8226
SF-268 = tested on: SF-268
SN12C = tested on: SN12C
SW-620 = tested on: SW-620
UACC-257 = tested on: UACC-257
UACC-62 = tested on: UACC-62
UO-31 = tested on: UO-31
MDA-MB-231 = tested on: MDA-MB-231
PC-3 = tested on: PC-3
Hs-578T = tested on: Hs-578T

Row | Structure (SMILES) | GI50 (A498) | GI50 (A549) | GI50 (HCC 2998) | GI50 (HCT-116) | GI50 (HL-60) | GI50 (KM12) | GI50 (LOX IMVI) | GI50 (Malme-3M) | GI50 (NCI-H460) | GI50 (OVCAR-8) | GI50 (RPMI-8226) | GI50 (SF-268) | GI50 (SN12C) | GI50 (SW-620) | GI50 (UACC-257) | GI50 (UACC-62) | GI50 (UO-31) | GI50 (MDA-MB-231) | GI50 (PC-3) | GI50 (Hs-578T)
1 | O=S(=O)(O)C(F)(F)C(F)(F)C(F)(F)C(F)(F)F | 43.7 µM (inactive) | > 100 µM (inactive) | > 100 µM (inactive) | > 100 µM (inactive) | > 100 µM (inactive) | > 100 µM (inactive) | > 100 µM (inactive) | > 100 µM (inactive) | > 100 µM (inactive) | > 100 µM (inactive) | > 100 µM (inactive) | > 100 µM (inactive) | > 100 µM (inactive) | > 100 µM (inactive) | > 100 µM (inactive) | > 100 µM (inactive) | > 100 µM (inactive) | – | – | –
2 | O=C1OCCC12CN(Cc1ccccc1)N=N2 (centres undefined) | > 100 µM (inactive) | > 100 µM (inactive) | > 100 µM (inactive) | > 100 µM (inactive) | – | > 100 µM (inactive) | – | 12.1 µM (inactive) | > 100 µM (inactive) | > 100 µM (inactive) | > 100 µM (inactive) | > 100 µM (inactive) | > 100 µM (inactive) | > 100 µM (inactive) | – | > 100 µM (inactive) | > 100 µM (inactive) | > 100 µM (inactive) | > 100 µM (inactive) | –
3 | O=C(/C=C/c1ccc(-c2ccccc2)cc1)NCc1ccc(C(=O)NCCc2ccccc2)cc1 | > 100 µM (inactive) | > 100 µM (inactive) | > 100 µM (inactive) | 34.4 µM (inactive) | – | > 100 µM (inactive) | 41.1 µM (inactive) | 31.6 µM (inactive) | > 100 µM (inactive) | 36.2 µM (inactive) | > 100 µM (inactive) | > 100 µM (inactive) | > 100 µM (inactive) | > 100 µM (inactive) | > 100 µM (inactive) | > 100 µM (inactive) | > 100 µM (inactive) | 38.1 µM (inactive) | > 100 µM (inactive) | –
4 | CCOC(=O)C[C@@H](C)[C@]1(C(=O)OC)CCCC1=O | > 100 µM (inactive) | > 100 µM (inactive) | > 100 µM (inactive) | > 41.1 µM (inactive) | > 100 µM (inactive) | > 100 µM (inactive) | > 47.1 µM (inactive) | > 100 µM (inactive) | > 67 µM (inactive) | > 100 µM (inactive) | > 49.3 µM (inactive) | > 90.8 µM (inactive) | > 100 µM (inactive) | > 100 µM (inactive) | > 100 µM (inactive) | > 100 µM (inactive) | > 100 µM (inactive) | – | – | –
5 | O=C(Cc1ccccc1)NNc1nc(NNC(=O)c2ccncc2)nc(Nc2cccc(Cl)c2)n1 | – | > 10 µM (inactive) | > 10 µM (inactive) | – | > 10 µM (inactive) | > 10 µM (inactive) | > 10 µM (inactive) | > 10 µM (inactive) | > 10 µM (inactive) | > 10 µM (inactive) | > 10 µM (inactive) | > 10 µM (inactive) | > 10 µM (inactive) | > 10 µM (inactive) | > 10 µM (inactive) | > 10 µM (inactive) | – | > 10 µM (inactive) | – | > 10 µM (inactive)
6 | COC(=O)[C@@H]1C(=O)O[C@@H](c2ccc(OC)c(OC)c2OC)[C@@H]1C(=O)OC.COC(=O)[C@H]1C(=O)O[C@@H](c2ccc(OC)c(OC)c2OC)[C@@H]1C(=O)OC | > 100 µM (inactive) | > 100 µM (inactive) | > 100 µM (inactive) | > 100 µM (inactive) | > 100 µM (inactive) | > 100 µM (inactive) | > 100 µM (inactive) | > 100 µM (inactive) | > 100 µM (inactive) | > 100 µM (inactive) | > 100 µM (inactive) | > 100 µM (inactive) | > 100 µM (inactive) | > 100 µM (inactive) | > 100 µM (inactive) | > 100 µM (inactive) | > 100 µM (inactive) | – | – | –
7 | c1ccc(SC(CCCCOC2CCCCO2)Sc2ccccc2)cc1 (centres undefined) | 88.7 µM (inactive) | 93.3 µM (inactive) | > 100 µM (inactive) | 47.5 µM (inactive) | 20.4 µM (inactive) | > 100 µM (inactive) | 65.5 µM (inactive) | > 100 µM (inactive) | 99.1 µM (inactive) | 87.5 µM (inactive) | 32.4 µM (inactive) | 44.5 µM (inactive) | > 100 µM (inactive) | 76.4 µM (inactive) | 63.8 µM (inactive) | > 100 µM (inactive) | 13.4 µM (inactive) | – | – | –
8 | CN(C)CCCNC(=O)c1cc(NC(=O)c2cc(NC(=O)[C@H]3C[C@@H]3C(=O)Nc3cc(C(=O)Nc4cc(C(=O)NCCCN(C)C)n(C)c4)n(C)c3)cn2C)cn1C | – | > 100 µM (inactive) | > 100 µM (inactive) | > 100 µM (inactive) | > 100 µM (inactive) | > 100 µM (inactive) | > 100 µM (inactive) | > 100 µM (inactive) | > 100 µM (inactive) | > 100 µM (inactive) | > 100 µM (inactive) | > 100 µM (inactive) | > 100 µM (inactive) | > 100 µM (inactive) | > 100 µM (inactive) | – | – | > 100 µM (inactive) | > 100 µM (inactive) | –
9 | CCCCCCCC[N+](C)(C)Cc1ccc(C[N+](C)(C)CCCCCCCC)cc1 | 38.1 µM (inactive) | 32.8 µM (inactive) | 31.5 µM (inactive) | > 100 µM (inactive) | 36.4 µM (inactive) | 11.7 µM (inactive) | 84.5 µM (inactive) | 95.3 µM (inactive) | 28.6 µM (inactive) | 15.6 µM (inactive) | 90.2 µM (inactive) | > 100 µM (inactive) | 7.33 µM (inactive) | 91.2 µM (inactive) | 41.9 µM (inactive) | 77.8 µM (inactive) | > 100 µM (inactive) | – | – | –
10 | CC(C)CNC(=O)Cn1c(-c2ccccc2)cc2ccccc21 | – | > 100 µM (inactive) | > 100 µM (inactive) | > 100 µM (inactive) | > 100 µM (inactive) | > 100 µM (inactive) | > 100 µM (inactive) | > 100 µM (inactive) | > 100 µM (inactive) | > 100 µM (inactive) | > 100 µM (inactive) | > 100 µM (inactive) | > 100 µM (inactive) | > 100 µM (inactive) | > 100 µM (inactive) | > 100 µM (inactive) | > 100 µM (inactive) | – | > 100 µM (inactive) | 19.5 µM (inactive)
11 | COc1cc(/C=C2\[C@H]3c4c(c(OC)c(C)c(OC)c4OC)CC(C(=O)N2Cc2ccccc2)N3C)c(OC)c(C)c1OC | 27 µM (inactive) | > 100 µM (inactive) | 21.7 µM (inactive) | > 100 µM (inactive) | 15.7 µM (inactive) | 36 µM (inactive) | 18.4 µM (inactive) | 21.9 µM (inactive) | 16.6 µM (inactive) | 38.5 µM (inactive) | 20.6 µM (inactive) | 27.2 µM (inactive) | 17.9 µM (inactive) | 22.2 µM (inactive) | 21 µM (inactive) | 16.4 µM (inactive) | 19.3 µM (inactive) | – | – | –
12 | CC1CNC(NS(=O)(=O)c2cc(C(=O)Nc3ccccc3)c(Cl)cc2S)=NN1 (centres undefined) | 17.7 µM (inactive) | 33.7 µM (inactive) | 46.1 µM (inactive) | 30.5 µM (inactive) | 66.2 µM (inactive) | 33.3 µM (inactive) | 21 µM (inactive) | 31.2 µM (inactive) | 63 µM (inactive) | 30.8 µM (inactive) | 31.4 µM (inactive) | 26.1 µM (inactive) | > 100 µM (inactive) | 40.6 µM (inactive) | > 100 µM (inactive) | 43.2 µM (inactive) | 77.8 µM (inactive) | > 100 µM (inactive) | 29 µM (inactive) | –
13 | CCN(CC)CCCNc1nc2ccccc2[n+]([O-])n1 | > 100 µM (inactive) | > 100 µM (inactive) | > 100 µM (inactive) | > 100 µM (inactive) | > 100 µM (inactive) | > 100 µM (inactive) | – | > 100 µM (inactive) | > 100 µM (inactive) | > 100 µM (inactive) | > 100 µM (inactive) | > 100 µM (inactive) | > 100 µM (inactive) | > 100 µM (inactive) | > 100 µM (inactive) | > 100 µM (inactive) | > 100 µM (inactive) | > 100 µM (inactive) | > 100 µM (inactive) | –
14 | C[n+]1ccc2/c(=C\C#N)c3ccccc3n21 | – | 19.1 µM (inactive) | 19 µM (inactive) | 29.7 µM (inactive) | 17.3 µM (inactive) | 19.2 µM (inactive) | 15.9 µM (inactive) | 17.1 µM (inactive) | 31 µM (inactive) | 36.6 µM (inactive) | 11.8 µM (inactive) | 32.2 µM (inactive) | 27.9 µM (inactive) | 35.1 µM (inactive) | < 0.01 µM (active) | 34.8 µM (inactive) | > 100 µM (inactive) | – | 25.9 µM (inactive) | –
15 | COC1CC2C3/C(=N/Nc4ccc([N+](=O)[O-])cc4[N+](=O)[O-])CCC2(C)C3C1 (centres undefined) | > 10 µM (inactive) | > 100 µM (inactive) | > 10 µM (inactive) | > 100 µM (inactive) | 52.6 µM (inactive) | > 100 µM (inactive) | > 10 µM (inactive) | > 10 µM (inactive) | > 100 µM (inactive) | > 100 µM (inactive) | 78 µM (inactive) | > 100 µM (inactive) | > 10 µM (inactive) | > 10 µM (inactive) | > 100 µM (inactive) | > 10 µM (inactive) | > 10 µM (inactive) | – | – | –
16 | CN1N=C2c3ccccc3CC[C@H]2C1c1cccc(O)c1 (some centres undefined) | > 100 µM (inactive) | 85.5 µM (inactive) | > 100 µM (inactive) | 3.05 µM (inactive) | > 100 µM (inactive) | > 100 µM (inactive) | > 100 µM (inactive) | 0.463 µM (active) | 81.1 µM (inactive) | > 100 µM (inactive) | > 100 µM (inactive) | > 100 µM (inactive) | > 100 µM (inactive) | > 100 µM (inactive) | > 100 µM (inactive) | > 100 µM (inactive) | 32.4 µM (inactive) | – | – | –
